In patent US8613931B2, “Compounds for treating beta-amyloidoses” (Affiris AG, priority 2008, dated 2013):

How the values were obtained:
[1] = system: monoclonal antibody MV-004; experiment: In vitro inhibition assay (ELISA), MV-004 binding to original epitope; parameters: species or system BalbC mice; details: OD at 10 μg peptide compared to original peptide
Description: (§1) 2. In vitro inhibition assay (ELISA)
(§2) Different amounts of peptides (concentrations ranging from 10 μg to 0.08 μg; serial dilutions), derived from Phage Display were incubated with the monoclonal antibody that was used for the screening procedure. Peptides diminishing subsequent binding of the antibody to the original epitope coated on ELISA plates were considered as inhibiting in this assay.

[2] = system: monoclonal antibody MV-003; experiment: In vitro inhibition assay (ELISA), MV-003 binding to original epitope; parameters: species or system BalbC mice; details: OD at 10 μg peptide compared to original peptide
Description: as §1, §2

[3] = system: full length and/or truncated and modified forms of Aβ; experiment: In vivo characterisation of mimotopes: detection of Aβ/truncated/modified forms; parameters: species or system C57/bl6 mice; key: +: All peptides listed in Table 5 mount specific immune reactions against full length and/or truncated and modified forms of Aβ or fragments thereof; details: MV-003 derived mimotopes; mimotope vaccination
Description: (§3) Inhibiting as well as non-inhibiting peptides were coupled to KLH and injected into mice (wildtype C57/Bl6 mice; subcutaneous injection into the flank) together with an appropriate adjuvant (aluminium hydroxide). Animals were vaccinated 3-6 times in biweekly intervals and sera were taken biweekly as well. Titers to injected peptides, as well as to an irrelevant peptide were determined with every serum. Furthermore, titers against the recombinant human Aβ protein, and against original peptides were determined respectively. In general sera were analysed by reaction against peptides coupled to Bovine Serum Albumin (BSA) and recombinant full length proteins which were immobilised on ELISA plates. Titers were determined using anti mouse IgG specific antibodies. For detailed results see FIGS. 6, 7 and 8 respectively.
(§4) Female C57/bl6 mice, 5-6 mice per group, were subcutaneously immunized with 30 μg peptide coupled to KLH. Control groups were administered original epitope-KLH conjugates respectively. As adjuvant alum was used (always 1 mg per mouse). […] The in vitro ELISA assay to determine the antibody titer was performed with sera of single mice after each vaccination in a two week interval (see FIGS. 6 and 7 respectively). The wells of the ELISA plate were coated with mimotope-BSA conjugate and an irrelevant peptide-BSA conjugate (negative control). The positive control was performed by reaction of the parental antibody with the respective mimotope-BSA conjugate. The detection was performed with anti-mouse IgG. Additionally, recombinant proteins were immobilised on ELISA plates and sera reacted accordingly. FIGS. 6 to 8 show representative examples for assays used to characterise mimotopes in vivo.

[4] = system: monoclonal antibody MV-001; experiment: In vitro binding assay (ELISA), parental antibody MV-001; parameters: species or system C57/Bl6 mice; details: peptide-BSA on ELISA plate; OD halfmax, dilution factor 1:X of parental AB MV-001
Description: 1. In vitro binding assay (ELISA)
Peptides derived from Phage Display as well as variants thereof were coupled to BSA and bound to ELISA plates (1 μM; as indicated in the respective figures) and subsequently incubated with the monoclonal antibody that was used for the screening procedure to analyse binding capacity of identified peptides.

[5] = system: monoclonal antibody MV-001; experiment: In vitro inhibition assay (ELISA), MV-001 binding to original epitope; parameters: species or system C57/Bl6 mice; details: OD at 10 μg peptide compared to original peptide
Description: as §1, §2

[6] = system: Tg2576 AD mouse model; experiment: Area occupied by amyloid plaques in Tg2576 mice after mimotope vaccination; format: in vivo; details: Tg2576, 6 s.c. injections at monthly intervals, peptide-KLH conjugate with ALUM; for average area occupied by amyloid plaques: mAb 3A5 staining, control group 0.35%; for reduction of area occupied by amyloid plaques following mimotope treatment: versus control group
[7] = system: full length and/or truncated and modified forms of Aβ; experiment: In vivo characterisation of mimotopes: detection of Aβ/truncated/modified forms; parameters: species or system C57/bl6 mice; key: +: All peptides listed in Table 4 mount specific immune reactions against full length and/or truncated and modified forms of Aβ or fragments thereof; details: MV-001 derived mimotopes; mimotope vaccination
Description: as §3, §4

[8] = biological target: monoclonal antibody MV-004; experiment: ELISA, peptide-BSA coated, MV-004; details: for Binding Capacity: scale: code
[9] = biological target: monoclonal antibody MV-004; experiment: inhibition ELISA; competitor: coated original epitope p4372; details: for Inhibition Capacity: scale: code
[10] = biological target: monoclonal antibody MV-003; experiment: ELISA, peptide-BSA coated, MV-003; details: for Binding Capacity: scale: code
[11] = biological target: monoclonal antibody MV-003; experiment: inhibition ELISA; competitor: coated original epitope p4373

ERWHEKHC [p4418]
Inhibition Capacity [1]: 2 (strong inhibition (as original epitope; OD of 10 μg peptide below 2 times of original peptide))

ELWHRYPC [p4420]
Inhibition Capacity [1]: 1 (Weaker than original epitope (OD of 10 μg peptide below 5 times of original peptide))

ERWHEKC [p4790]
Inhibition Capacity [1]: 2 (strong inhibition (as original epitope; OD of 10 μg peptide below 2 times of original peptide))

IRWDGGC [p4793]
Inhibition Capacity [2]: 1 (Weaker than original epitope (OD of 10 μg peptide below 12 times of original peptide))

VRWDVYPC [p4396]
Detection of Aβ/truncated/modified forms [3]: +

ELWHRAC [p4786]
Inhibition Capacity [1]: 1 (Weaker than original epitope (OD of 10 μg peptide below 5 times of original peptide))

SEFKHGC [p4381]
Binding Capacity [4]: 3 (strong binding :>20000)
Inhibition Capacity [5]: 1 (Weaker than original epitope (OD of 10 μg peptide below 3 times of original peptide))
average area occupied by amyloid plaques [6]: 0.11%
reduction of area occupied by amyloid plaques following mimotope treatment [6]: 67%
Detection of Aβ/truncated/modified forms [7]: +

IRYDMAGC [p4399]
Detection of Aβ/truncated/modified forms [3]: +

LMFRHNC [p4386]
Binding Capacity [4]: 3 (strong binding :>20000)
Inhibition Capacity [5]: 1 (Weaker than original epitope (OD of 10 μg peptide below 3 times of original peptide))
Detection of Aβ/truncated/modified forms [7]: +

ILFRHGC [p4390]
Binding Capacity [4]: 3 (strong binding :>20000)
Inhibition Capacity [5]: 1 (Weaker than original epitope (OD of 10 μg peptide below 3 times of original peptide))
average area occupied by amyloid plaques [6]: 0.14%
reduction of area occupied by amyloid plaques following mimotope treatment [6]: 60%
Detection of Aβ/truncated/modified forms [7]: +

DEHPFRHC [p4730]
Binding Capacity [4]: 3 (strong binding :>20000)
Inhibition Capacity [5]: 1 (Weaker than original epitope (OD of 10 μg peptide below 3 times of original peptide))
Detection of Aβ/truncated/modified forms [7]: +

THTDFRHC [p4725]
Binding Capacity [4]: 3 (strong binding :>20000)
Inhibition Capacity [5]: 1 (Weaker than original epitope (OD of 10 μg peptide below 3 times of original peptide))
Detection of Aβ/truncated/modified forms [7]: +

EVWHRGC [p4788]
Inhibition Capacity [1]: 1 (Weaker than original epitope (OD of 10 μg peptide below 5 times of original peptide))

TLHEFRHC [p4715]
Binding Capacity [4]: 3 (strong binding :>20000)
Inhibition Capacity [5]: 2 (strong inhibition (as original epitope; OD of 10 μg peptide below 2 times of original peptide))
average area occupied by amyloid plaques [6]: 0.22%
reduction of area occupied by amyloid plaques following mimotope treatment [6]: 36%
Detection of Aβ/truncated/modified forms [7]: +

EVWHRHC [p4789]
Inhibition Capacity [1]: 1 (Weaker than original epitope (OD of 10 μg peptide below 5 times of original peptide))

EVWHRHQC [p4417]
Inhibition Capacity [1]: 1 (Weaker than original epitope (OD of 10 μg peptide below 5 times of original peptide))

ELWHRAFC [p4665]
Inhibition Capacity [1]: 2 (strong inhibition (as original epitope; OD of 10 μg peptide below 2 times of original peptide))

EVWHRLQC [p4419]
Inhibition Capacity [1]: 2 (strong inhibition (as original epitope; OD of 10 μg peptide below 2 times of original peptide))

IRWDGC [p4792]
Inhibition Capacity [2]: 1 (Weaker than original epitope (OD of 10 μg peptide below 12 times of original peptide))

TEFRHKAC [p4753]
Binding Capacity [4]: 3 (strong binding :>20000)
Inhibition Capacity [5]: 2 (strong inhibition (as original epitope; OD of 10 μg peptide below 2 times of original peptide))
Detection of Aβ/truncated/modified forms [7]: +

EVWHRLQC [p4419]
Binding Capacity [8]: 3
Inhibition Capacity [9]: 2

VRWDVYPC [p4396]
Binding Capacity (code (weak binding, OD halfmax 1:<16000)) [10]: 1

ERWHEKHC [p4418]
Binding Capacity [8]: 3
Inhibition Capacity [9]: 2

EVWHRHQC [p4417]
Binding Capacity [8]: 2
Inhibition Capacity (code (weaker than original epitope)) [9]: 1

IRWDQPC [p4756]
Binding Capacity [10]: 3
Inhibition Capacity (code (weaker than original epitope)) [11]: 1

IRYDMAGC [p4399]
Binding Capacity (code (weak binding, OD halfmax 1:<16000)) [10]: 1

EVWHRGC [p4788]
Binding Capacity (code (weak binding, OD halfmax 1:<24000)) [8]: 1
Inhibition Capacity (code (weaker than original epitope)) [9]: 1

IRWDTSLC [p4728]
Binding Capacity [10]: 3
Inhibition Capacity ([11]; scale: code): 2

IRWDGGC [p4793]
Binding Capacity [10]: 2
Inhibition Capacity (code (weaker than original epitope)) [11]: 1

IRWDGC [p4792]
Binding Capacity (code (weak binding, OD halfmax 1:<16000)) [10]: 1
Inhibition Capacity (code (weaker than original epitope)) [11]: 1

IRWDTPC [p4395]
Binding Capacity [10]: 2
Inhibition Capacity (code (weaker than original epitope)) [11]: 1

ERWHEKC [p4790]
Binding Capacity (code (weak binding, OD halfmax 1:<24000)) [8]: 1
Inhibition Capacity [9]: 2

ELWHRAFC [p4665]
Binding Capacity [8]: 2
Inhibition Capacity [9]: 2

IRYDAPLC [p4397]
Binding Capacity (code (weak binding, OD halfmax 1:<16000)) [10]: 1
Inhibition Capacity (code (weaker than original epitope)) [11]: 1

ELWHRYPC [p4420]
Binding Capacity [8]: 2
Inhibition Capacity (code (weaker than original epitope)) [9]: 1

EVWHRHC [p4789]
Binding Capacity (code (weak binding, OD halfmax 1:<24000)) [8]: 1
Inhibition Capacity (code (weaker than original epitope)) [9]: 1

ELWHRAC [p4786]
Binding Capacity (code (weak binding, OD halfmax 1:<24000)) [8]: 1
Inhibition Capacity (code (weaker than original epitope)) [9]: 1
